Measurements taken from ChEMBL document CHEMBL1201862, “PubChem BioAssay data set” (2004).
Counter-ions that a name gives are not always drawn. Active and inactive are the calls of the source.

How the values were obtained:
Escherichia coli = experiment: microbe, parasite or virus in culture
Estrogen receptor beta = Estrogen receptor beta (Homo sapiens, UniProt Q92731);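 note: recombinant ER-beta bound to coactivator SRC1 peptide in presence of estradiol agonist; inhibitors block coactivator peptide binding and lower the FRET signal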
[1] = target: T1, Ubiquitin-conjugating enzyme E2 N (Homo sapiens, UniProt P61088); type: functional
T1 sequence (P61088 whole entry): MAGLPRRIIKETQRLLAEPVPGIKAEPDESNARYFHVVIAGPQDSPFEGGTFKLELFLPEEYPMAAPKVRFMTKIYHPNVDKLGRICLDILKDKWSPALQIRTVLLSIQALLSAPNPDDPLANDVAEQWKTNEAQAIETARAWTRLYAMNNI

Bcl-2-related protein A1 = target: T2, Bcl-2-related protein A1 (Mus musculus, UniProt Q07440); type: functional;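 note: confirmatory dose–response counterscreen on Bfl-1, used to check hits from a UBC13 polyubiquitin inhibitor campaign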
T2 sequence (Q07440 whole entry): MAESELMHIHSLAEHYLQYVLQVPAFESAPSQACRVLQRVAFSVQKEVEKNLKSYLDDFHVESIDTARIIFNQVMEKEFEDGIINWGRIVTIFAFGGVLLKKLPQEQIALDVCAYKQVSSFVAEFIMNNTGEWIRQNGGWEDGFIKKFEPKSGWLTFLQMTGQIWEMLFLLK

[2] = HeLa cell cytotoxicity, dose response, cytotoxicity control for MgcRacGAP inhibitor project (AID 624300); type: functional
[3] = Luminescence Cell-Based Dose Retest to Confirm Inhibitors of Cancer Stem Cells. [Related pubchem assays (depositor defined):AID2717, AID2721]; type: functional; conditions: Homo sapiens
[4] = target: T3, Rac GTPase-activating protein 1 (Homo sapiens, UniProt Q9H0H5); experiment: MgcRacGAP GTPase-activating activity inhibitors, confirmation, biochemical, ADP Hunter fluorescence, primary and confirmatory (AID 624330); type: functional
T3 sequence (Q9H0H5 whole entry): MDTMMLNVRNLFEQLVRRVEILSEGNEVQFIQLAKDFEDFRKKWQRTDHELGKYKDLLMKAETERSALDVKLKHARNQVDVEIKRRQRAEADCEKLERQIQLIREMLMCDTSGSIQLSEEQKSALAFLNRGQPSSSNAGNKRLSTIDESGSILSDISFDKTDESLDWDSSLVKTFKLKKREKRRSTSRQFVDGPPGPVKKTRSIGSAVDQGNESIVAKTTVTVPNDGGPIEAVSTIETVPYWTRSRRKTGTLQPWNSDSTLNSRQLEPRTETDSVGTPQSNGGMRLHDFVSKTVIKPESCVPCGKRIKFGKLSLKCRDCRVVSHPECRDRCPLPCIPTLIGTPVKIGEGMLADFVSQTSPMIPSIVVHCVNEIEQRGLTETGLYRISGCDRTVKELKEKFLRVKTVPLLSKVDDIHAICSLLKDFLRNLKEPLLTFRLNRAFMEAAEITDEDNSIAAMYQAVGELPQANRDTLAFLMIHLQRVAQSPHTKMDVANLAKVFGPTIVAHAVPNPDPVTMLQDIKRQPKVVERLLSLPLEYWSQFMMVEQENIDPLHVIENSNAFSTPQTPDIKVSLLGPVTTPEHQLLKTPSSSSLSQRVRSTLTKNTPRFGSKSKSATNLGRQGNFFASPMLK

[5] = target: T1, Ubiquitin-conjugating enzyme E2 N; type: functional; remark: listed apart in the source
Streptococcus = experiment: Group A Streptococcus viability loss, dose response, counter-screen for streptokinase expression inhibitor project, luminescence, BacTiterGlo (AID 1915); type: functional, organism-based;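 note: potency for reduction of bacterial viability or growth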
[6] = system: Streptococcus sp. 'group A'; experiment: growth inhibition of control SK(-) GAS strain, dose response, counter-screen for streptokinase expression inhibitor project, luminescence, kanamycin, BacTiterGlo, confirmation (AID 1900); type: functional, organism-based
Prothrombin = Prothrombin (Bos taurus, UniProt P00735); experiment: thrombin inhibition, dose response, biochemical, fluorescence polarization, uHTS hits (AID 602369); type: functional
[7] = target: 26S proteasome non-ATPase regulatory subunit 14 (Homo sapiens, UniProt O00487); experiment: inhibition of proteasome subunit RPN11 – biochemical, fluorescence polarization, uHTS hits, confirmation (AID 602368); type: functional
[8] = target: 72 kDa type IV collagenase (Homo sapiens, UniProt P08253); experiment: Dose Response validation of uHTS RPN11 inhibitor hits using a MMP-2 Fluorescence assay.; type: functional
[9] = target: T4, High affinity choline transporter 1 (Homo sapiens, UniProt Q9GZV3); experiment: CHT inhibitors, dose response, cell-based, 5-point CRC, membrane potential dye (AID 504840); type: functional
T4 sequence (Q9GZV3 whole entry): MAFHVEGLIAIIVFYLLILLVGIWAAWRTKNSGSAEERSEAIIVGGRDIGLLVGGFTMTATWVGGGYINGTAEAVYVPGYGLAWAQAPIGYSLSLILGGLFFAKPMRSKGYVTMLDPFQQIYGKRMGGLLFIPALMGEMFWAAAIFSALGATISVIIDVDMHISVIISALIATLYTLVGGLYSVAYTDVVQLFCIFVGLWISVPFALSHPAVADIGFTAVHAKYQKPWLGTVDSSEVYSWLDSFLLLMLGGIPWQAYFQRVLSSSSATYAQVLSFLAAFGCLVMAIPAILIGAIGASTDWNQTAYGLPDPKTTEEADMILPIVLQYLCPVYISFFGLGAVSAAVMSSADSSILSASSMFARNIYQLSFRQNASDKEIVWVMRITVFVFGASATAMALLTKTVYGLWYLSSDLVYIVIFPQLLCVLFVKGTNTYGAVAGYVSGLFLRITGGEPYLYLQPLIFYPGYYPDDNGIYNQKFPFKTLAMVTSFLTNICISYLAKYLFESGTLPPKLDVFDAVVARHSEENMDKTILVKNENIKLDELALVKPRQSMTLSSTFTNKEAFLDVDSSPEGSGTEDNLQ

[10] = target: T4, High affinity choline transporter 1; experiment: CHT inhibitors, dose response, cell-based, 10-point CRC, membrane potential dye (AID 588401); type: functional;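 note: membrane potential dye fluorescence of choline-evoked depolarization via CHT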
[11] = target: T5, Peroxisome proliferator-activated receptor gamma/Nuclear receptor coactivator 1 (Homo sapiens, UniProt P37231); experiment: (§1) TR-FRET dose response biochemical High Throughput Screening assay for agonists of the steroid receptor coactivator 1 (SRC-1) recruitment by the peroxisome proliferator-activated receptor gamma (PPAR gamma): non-selective agonists. [Related pubchem assays (depositor defined):AID1300, AID1808, AID504735, AID631]; type: protein assay
[12] = target: T6, Peroxisome proliferator-activated receptor gamma/Nuclear receptor coactivator 3 (Homo sapiens, UniProt P37231); experiment: as §1, with “3 (SRC-3)” for “1 (SRC-1)”, “assays: 1301 (Confirmation screen.), 1048 (Primary screen.)]” for “assays (depositor defined):AID1300, AID1808, AID504735, AID631]”; type: functional
[13] = target: T7, Peroxisome proliferator-activated receptor gamma/Nuclear receptor coactivator 2 (Homo sapiens, UniProt P37231); experiment: TR-FRET dose response biochemical High Throughput Screening assay for agonists of the steroid receptor coactivator 2 (SRC-2) recruitment by the peroxisome proliferator-activated receptor gamma (PPAR gamma): non-selective agonists. [Related pubchem assays: 1297, 1032 ]; type: functional
H9c2 = experiment: cells; type: functional, cell-based; conditions: Rattus norvegicus, H9c2, Myocardium;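 note: confirmatory concentration-response retest of ultra-high-throughput screening hits for modulation of myocardial damage; cell death induced by hydrogen peroxide oxidative stress; compound pretreatment for 60 min then peroxide exposure for 2 h; potency is for protecting the cells against peroxide damage rather than for killing them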
[14] = target: Heat shock protein HSP 90-alpha (Homo sapiens, UniProt P07900); type: functional, organism-based
[15] = target: T7, Peroxisome proliferator-activated receptor gamma/Nuclear receptor coactivator 2; type: functional
[16] = target: T6, Peroxisome proliferator-activated receptor gamma/Nuclear receptor coactivator 3; type: functional
[17] = target: T5, Peroxisome proliferator-activated receptor gamma/Nuclear receptor coactivator 1; type: functional
[18] = target: T8, Long-chain-fatty-acid--AMP ligase FadD28 (Mycobacterium tuberculosis, UniProt P9WQ59); experiment: Fluorescence polarization aasay to screen for inhibitors that compete for the binding of FadD28 to a bisubstrate Measured in Biochemical System Using Plate Reader - 2147-01_Inhibitor_Dose_CherryPick_Activity.; type: functional, Mycobacterium tuberculosis H37Rv
T8 sequence (P9WQ59 whole entry): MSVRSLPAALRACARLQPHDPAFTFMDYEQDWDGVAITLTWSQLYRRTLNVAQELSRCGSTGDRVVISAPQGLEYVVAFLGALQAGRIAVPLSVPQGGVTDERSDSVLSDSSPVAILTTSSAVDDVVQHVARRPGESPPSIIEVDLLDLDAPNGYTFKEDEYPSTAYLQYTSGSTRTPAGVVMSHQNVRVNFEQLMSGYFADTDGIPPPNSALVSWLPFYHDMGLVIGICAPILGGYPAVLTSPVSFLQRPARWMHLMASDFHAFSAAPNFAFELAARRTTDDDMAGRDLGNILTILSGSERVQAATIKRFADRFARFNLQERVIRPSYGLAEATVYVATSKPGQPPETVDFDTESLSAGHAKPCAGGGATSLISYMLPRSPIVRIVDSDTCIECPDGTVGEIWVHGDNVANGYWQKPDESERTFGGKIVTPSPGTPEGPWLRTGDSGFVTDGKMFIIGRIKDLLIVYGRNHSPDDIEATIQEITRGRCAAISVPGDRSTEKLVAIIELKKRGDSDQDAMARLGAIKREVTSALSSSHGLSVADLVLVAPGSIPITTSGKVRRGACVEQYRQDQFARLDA

[19] = target: T9, Apoptotic protease-activating factor 1 (Homo sapiens, UniProt O14727); type: functional
T9 sequence (O14727 whole entry): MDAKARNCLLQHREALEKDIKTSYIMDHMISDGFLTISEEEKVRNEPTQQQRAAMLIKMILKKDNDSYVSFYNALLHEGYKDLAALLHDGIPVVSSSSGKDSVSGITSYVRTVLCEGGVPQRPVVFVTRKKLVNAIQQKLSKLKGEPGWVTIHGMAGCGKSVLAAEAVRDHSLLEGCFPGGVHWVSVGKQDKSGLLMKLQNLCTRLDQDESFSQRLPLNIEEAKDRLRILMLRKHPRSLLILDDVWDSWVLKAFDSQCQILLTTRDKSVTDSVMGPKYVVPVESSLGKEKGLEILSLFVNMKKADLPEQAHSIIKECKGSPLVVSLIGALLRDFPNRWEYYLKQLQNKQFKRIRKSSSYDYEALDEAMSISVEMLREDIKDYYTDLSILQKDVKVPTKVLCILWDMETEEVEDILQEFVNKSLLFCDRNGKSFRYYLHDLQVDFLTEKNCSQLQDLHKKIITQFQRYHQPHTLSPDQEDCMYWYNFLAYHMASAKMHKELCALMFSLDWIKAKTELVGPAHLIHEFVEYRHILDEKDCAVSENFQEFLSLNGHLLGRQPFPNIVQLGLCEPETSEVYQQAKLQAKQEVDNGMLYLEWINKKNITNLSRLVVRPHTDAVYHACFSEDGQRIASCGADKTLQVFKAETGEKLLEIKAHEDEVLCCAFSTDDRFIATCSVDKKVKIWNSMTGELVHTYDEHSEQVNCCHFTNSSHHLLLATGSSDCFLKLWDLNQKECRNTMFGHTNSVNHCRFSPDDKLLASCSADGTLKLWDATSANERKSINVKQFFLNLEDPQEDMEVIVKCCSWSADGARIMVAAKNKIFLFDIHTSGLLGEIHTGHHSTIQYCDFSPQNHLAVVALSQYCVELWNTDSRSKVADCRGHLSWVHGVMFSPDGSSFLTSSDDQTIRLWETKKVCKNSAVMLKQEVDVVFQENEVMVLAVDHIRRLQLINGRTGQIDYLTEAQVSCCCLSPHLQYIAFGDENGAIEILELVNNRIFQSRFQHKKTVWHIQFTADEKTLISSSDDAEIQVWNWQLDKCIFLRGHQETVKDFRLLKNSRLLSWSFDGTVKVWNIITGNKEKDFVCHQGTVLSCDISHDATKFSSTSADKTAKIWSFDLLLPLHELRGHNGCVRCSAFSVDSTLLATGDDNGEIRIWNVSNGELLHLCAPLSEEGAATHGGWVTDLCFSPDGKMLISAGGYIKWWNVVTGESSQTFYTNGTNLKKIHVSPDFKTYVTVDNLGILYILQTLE

T5 sequence (P37231 whole entry): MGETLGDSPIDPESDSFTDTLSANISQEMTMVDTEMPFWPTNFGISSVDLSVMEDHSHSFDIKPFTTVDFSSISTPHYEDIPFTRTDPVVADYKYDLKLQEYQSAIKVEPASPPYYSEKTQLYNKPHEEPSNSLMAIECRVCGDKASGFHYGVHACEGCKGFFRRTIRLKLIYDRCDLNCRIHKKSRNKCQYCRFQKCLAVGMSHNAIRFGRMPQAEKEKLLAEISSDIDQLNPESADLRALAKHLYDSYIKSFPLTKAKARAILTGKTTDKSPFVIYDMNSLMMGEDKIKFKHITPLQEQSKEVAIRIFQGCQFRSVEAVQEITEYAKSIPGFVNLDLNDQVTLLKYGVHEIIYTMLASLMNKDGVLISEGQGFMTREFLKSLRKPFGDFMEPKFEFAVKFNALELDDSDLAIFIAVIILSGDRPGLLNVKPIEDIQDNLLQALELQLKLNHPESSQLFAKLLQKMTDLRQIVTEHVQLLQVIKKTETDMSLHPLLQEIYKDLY
T5 sequence (Q15788 whole entry, further chain): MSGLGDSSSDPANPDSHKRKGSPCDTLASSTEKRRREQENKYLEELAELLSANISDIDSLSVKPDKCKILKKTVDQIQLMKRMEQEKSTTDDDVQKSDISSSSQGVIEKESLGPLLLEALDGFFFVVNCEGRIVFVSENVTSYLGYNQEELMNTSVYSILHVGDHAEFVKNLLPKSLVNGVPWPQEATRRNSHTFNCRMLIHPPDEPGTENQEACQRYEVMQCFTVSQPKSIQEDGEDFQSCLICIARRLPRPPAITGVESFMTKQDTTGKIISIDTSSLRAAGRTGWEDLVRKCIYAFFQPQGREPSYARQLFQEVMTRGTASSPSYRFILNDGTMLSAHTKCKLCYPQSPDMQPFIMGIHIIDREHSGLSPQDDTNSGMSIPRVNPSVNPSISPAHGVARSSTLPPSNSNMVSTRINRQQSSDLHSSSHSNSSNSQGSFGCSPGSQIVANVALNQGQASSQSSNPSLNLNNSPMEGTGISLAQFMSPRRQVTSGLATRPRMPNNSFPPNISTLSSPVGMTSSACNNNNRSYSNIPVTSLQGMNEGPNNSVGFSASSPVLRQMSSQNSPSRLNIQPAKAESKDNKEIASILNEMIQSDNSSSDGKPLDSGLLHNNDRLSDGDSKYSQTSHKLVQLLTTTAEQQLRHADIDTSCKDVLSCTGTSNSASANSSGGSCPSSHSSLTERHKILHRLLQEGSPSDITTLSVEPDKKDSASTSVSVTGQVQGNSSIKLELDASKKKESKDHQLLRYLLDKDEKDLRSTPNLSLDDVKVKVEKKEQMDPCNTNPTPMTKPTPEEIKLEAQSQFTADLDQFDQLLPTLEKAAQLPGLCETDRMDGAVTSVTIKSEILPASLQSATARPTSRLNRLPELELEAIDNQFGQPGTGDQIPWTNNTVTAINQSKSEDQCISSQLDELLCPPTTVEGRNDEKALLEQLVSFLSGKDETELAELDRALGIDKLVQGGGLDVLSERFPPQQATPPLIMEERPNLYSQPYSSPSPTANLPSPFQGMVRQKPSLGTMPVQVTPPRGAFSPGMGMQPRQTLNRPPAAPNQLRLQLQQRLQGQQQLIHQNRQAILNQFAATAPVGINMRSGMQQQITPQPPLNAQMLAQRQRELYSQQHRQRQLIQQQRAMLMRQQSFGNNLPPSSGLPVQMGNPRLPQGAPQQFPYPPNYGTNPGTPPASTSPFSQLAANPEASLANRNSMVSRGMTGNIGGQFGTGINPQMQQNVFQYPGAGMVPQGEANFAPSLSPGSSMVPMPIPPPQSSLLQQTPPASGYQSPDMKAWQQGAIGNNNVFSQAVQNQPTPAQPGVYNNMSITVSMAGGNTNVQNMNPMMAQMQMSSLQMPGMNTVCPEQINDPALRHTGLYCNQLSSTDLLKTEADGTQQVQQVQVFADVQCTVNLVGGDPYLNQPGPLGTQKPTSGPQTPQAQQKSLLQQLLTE
T7 sequence (P37231 whole entry): as the sequence (P37231 whole entry) above
T7 sequence (Q15596 whole entry, further chain): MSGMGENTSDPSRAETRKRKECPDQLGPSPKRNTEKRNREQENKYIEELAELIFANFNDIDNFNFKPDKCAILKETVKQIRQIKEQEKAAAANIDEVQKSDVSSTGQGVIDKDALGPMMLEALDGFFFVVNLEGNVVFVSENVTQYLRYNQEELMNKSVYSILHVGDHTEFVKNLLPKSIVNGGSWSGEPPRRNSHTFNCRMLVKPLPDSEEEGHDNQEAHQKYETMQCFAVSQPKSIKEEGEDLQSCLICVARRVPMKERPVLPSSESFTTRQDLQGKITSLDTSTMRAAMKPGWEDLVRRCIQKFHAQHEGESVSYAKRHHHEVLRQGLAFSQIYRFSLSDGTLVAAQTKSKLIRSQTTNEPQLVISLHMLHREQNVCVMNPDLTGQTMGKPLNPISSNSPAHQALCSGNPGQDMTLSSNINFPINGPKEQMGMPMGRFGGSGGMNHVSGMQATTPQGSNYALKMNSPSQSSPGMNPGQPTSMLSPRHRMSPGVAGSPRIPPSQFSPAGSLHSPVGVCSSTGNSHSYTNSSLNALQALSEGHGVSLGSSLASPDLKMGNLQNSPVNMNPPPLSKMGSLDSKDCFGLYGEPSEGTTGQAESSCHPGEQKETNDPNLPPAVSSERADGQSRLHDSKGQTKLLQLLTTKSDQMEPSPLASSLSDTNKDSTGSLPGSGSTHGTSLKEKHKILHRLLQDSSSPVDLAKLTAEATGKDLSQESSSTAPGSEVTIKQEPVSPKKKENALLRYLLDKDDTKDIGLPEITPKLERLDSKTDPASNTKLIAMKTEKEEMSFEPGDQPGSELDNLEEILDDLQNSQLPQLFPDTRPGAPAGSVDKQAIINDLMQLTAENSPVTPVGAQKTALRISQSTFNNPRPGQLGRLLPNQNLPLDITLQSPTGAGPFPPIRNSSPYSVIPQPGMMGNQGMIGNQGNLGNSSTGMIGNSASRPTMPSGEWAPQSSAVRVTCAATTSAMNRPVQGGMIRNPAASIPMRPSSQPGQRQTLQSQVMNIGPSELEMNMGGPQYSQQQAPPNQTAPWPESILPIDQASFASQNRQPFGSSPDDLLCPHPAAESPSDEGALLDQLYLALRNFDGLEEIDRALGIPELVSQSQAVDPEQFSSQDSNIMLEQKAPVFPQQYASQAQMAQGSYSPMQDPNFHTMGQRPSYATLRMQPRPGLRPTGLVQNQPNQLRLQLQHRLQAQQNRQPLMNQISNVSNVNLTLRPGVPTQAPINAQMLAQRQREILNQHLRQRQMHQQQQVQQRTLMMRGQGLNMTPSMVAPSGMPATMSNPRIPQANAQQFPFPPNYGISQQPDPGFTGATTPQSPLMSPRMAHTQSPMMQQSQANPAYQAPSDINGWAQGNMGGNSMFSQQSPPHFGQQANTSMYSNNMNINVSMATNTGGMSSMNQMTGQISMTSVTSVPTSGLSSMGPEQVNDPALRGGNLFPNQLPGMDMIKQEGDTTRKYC
Chain of 72 kDa type IV collagenase (P08253 whole entry): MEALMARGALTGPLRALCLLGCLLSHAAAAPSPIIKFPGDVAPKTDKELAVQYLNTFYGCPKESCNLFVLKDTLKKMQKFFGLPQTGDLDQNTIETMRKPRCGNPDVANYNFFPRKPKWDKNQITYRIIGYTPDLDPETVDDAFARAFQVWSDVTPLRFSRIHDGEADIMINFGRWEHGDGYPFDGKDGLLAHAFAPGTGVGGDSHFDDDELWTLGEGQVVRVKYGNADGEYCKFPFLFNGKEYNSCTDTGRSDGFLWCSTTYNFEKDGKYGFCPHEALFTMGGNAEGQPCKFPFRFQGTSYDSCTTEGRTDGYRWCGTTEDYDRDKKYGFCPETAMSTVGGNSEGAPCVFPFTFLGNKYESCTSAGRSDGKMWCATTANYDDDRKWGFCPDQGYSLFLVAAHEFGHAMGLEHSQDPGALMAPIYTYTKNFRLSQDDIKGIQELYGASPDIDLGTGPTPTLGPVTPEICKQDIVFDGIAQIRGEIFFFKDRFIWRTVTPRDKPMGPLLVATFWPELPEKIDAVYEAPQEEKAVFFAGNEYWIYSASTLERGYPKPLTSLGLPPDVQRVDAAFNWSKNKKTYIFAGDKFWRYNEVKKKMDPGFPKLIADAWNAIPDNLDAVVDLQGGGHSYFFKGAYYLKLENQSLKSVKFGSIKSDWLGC
Chain of 26S proteasome non-ATPase regulatory subunit 14 (O00487 whole entry): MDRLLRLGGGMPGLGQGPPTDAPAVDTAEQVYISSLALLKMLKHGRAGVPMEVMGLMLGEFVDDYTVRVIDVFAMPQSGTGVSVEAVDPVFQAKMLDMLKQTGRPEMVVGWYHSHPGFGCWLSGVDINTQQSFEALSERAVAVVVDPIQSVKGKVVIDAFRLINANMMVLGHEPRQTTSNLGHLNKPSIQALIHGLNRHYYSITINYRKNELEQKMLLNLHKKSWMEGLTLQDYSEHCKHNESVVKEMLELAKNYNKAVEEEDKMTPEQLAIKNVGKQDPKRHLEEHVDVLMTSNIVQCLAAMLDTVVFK

COc1ccc(C(=O)NC2(C(F)(F)F)C(=O)Nc3c2c(=O)[nH]c(=O)n3CCc2ccc(OC)c(OC)c2)cc1 (stereo not drawn)
AC50 (Escherichia coli): 25.4 µM (active)

COCC(=O)Nc1nnc(Cc2ccc(OC)cc2)s1
AC50 (Escherichia coli): 111 µM (active) | IC50 (Estrogen receptor beta): > 50 µM (not active)

O=C(c1ccc(OCCN2CCCCC2)cc1)c1c(-c2ccc(O)cc2)sc2cc(O)ccc12 [RALOXIFENE HYDROCHLORIDE]
IC50 [1]: 14.2 µM (active) | IC50 (Bcl-2-related protein A1): > 20 µM (inactive) | CC50 [2]: 99.6 µM (active) | AC50 [3]: 1.75 µM (active) | IC50 [4]: 27.8 µM (active) | IC50 [5]: 17.5 µM (active)

CCn1cc(C(=O)O)c(=O)c2cc(F)c(N3CCN(C(S)=Nc4ccc(OC)cc4)CC3)cc21
AC50 (Escherichia coli): 2.52 µM (active) | EC50 (Streptococcus): 7.71 µM (active) | EC50 [6]: 2.27 µM (active)

NS(=O)(=O)c1ccc(Nc2ccc([N+](=O)[O-])c3nonc23)cc1
IC50 (Prothrombin): 36.1 µM (active) | IC50 [7]: 39.7 µM (active) | IC50 [8]: > 100 µM (inactive)

CCN(CC)CCCn1c2c(c(SCC(=O)Nc3ccc(OC(F)(F)F)cc3)nc1=O)CCC2
IC50 [9]: 7.92 µM (active) | IC50 [10]: 6.21 µM (active)

Cn1c(=O)cc(SCC(=O)Nc2ccc3c(c2)OCO3)c2ccccc21
EC50 [11]: > 79.4 µM (inactive) | EC50 [12]: > 79.4 µM (not active) | EC50 [13]: > 79.4 µM (not active)

Oc1c(Br)cc(Br)cc1/C=N/Cc1ccc(F)cc1
IC50 (H9c2): > 79 µM (inactive) | AC50 [14]: 6.15 µM (active) | EC50 [15]: 38.3 µM (not active) | IC50 [9]: 9.21 µM (active) | EC50 [16]: > 79.4 µM (not active) | EC50 [17]: > 79.4 µM (not active) | IC50 [10]: 3.64 µM (active)

Cc1nc(N)sc1C(=O)N/N=C/c1c[nH]c2ccccc12
AC50 [18]: 55.1 µM (active) | IC50 [1]: 1.33 µM (active) | IC50 (Bcl-2-related protein A1): > 20 µM (inactive) | IC50 [5]: 1.25 µM (active)

COc1ccc(NS(=O)(=O)c2ccc(C)c(NC(=O)CN3C(=O)NC4(CCCC4)C3=O)c2)cc1
IC50 (Prothrombin): 79.2 µM (active) | IC50 [19]: 23.2 µM (active) | IC50 [1]: 16.3 µM (active) | IC50 [7]: 3.31 µM (active) | IC50 (Bcl-2-related protein A1): > 20 µM (inactive) | IC50 [8]: > 100 µM (inactive) | IC50 [5]: > 20 µM (inactive)

Cc1ccc(C[S+]([O-])Cc2ccc(C(=O)NC3CCCC(C)C3C)o2)cc1 (stereo not drawn)
IC50 [9]: 9.8 µM (active) | IC50 [10]: 7.23 µM (active)

O=C(O)COc1ccc2c(c1Cl)N=S=N2
EC50 [11]: 9.32 µM (active) | EC50 [12]: 59 µM (not active) | EC50 [13]: 12.5 µM (not active)
